Measured values taken from patent publication US20040086514A1, “Novel helicobacter pylori-binding substances and use thereof” (priority 1999, published 2004).
Entries after “also recorded” stand apart in the source; their conditions may differ.

Assays:
Helicobacter pylori [1] = experiment: Chromatogram binding assay: 35S-labeled Helicobacter pylori to glycosphingolipids on thin-layer plates; settings: for binding of Helicobacter pylori to major acid glycosphingolipids of epithelial cells of human stomach: strains 002 and 032, identified tentatively by mobility on thin-layer chromatograms; for dependence of binding on other lipids or bile salts (Tween 20, deoxycholate) in the thin-layer chromatogram assay: coating buffer with or without detergent (FIG. 1); for binding of Helicobacter pylori in mixtures of reference glycosphingolipids: strain 17875, non-acid fractions of dog small intestine, guinea pig small intestine, mouse faeces (FIG. 1)
Helicobacter pylori [2] = experiment: Inhibition of binding on thin-layer chromatograms with soluble oligosaccharides; settings: for inhibition of binding of Helicobacter pylori to lactotetraosylceramide: 1 h room temperature, strain 17875 (FIG. 5)
Description: As a test for possible inhibition of binding by soluble sugars 35S-labeled Helicobacter pylori strains 002 and 032 were incubated for 1 h at room temperature with various concentrations (0.05 mg/ml, 0.1 mg/ml and 0.2 mg/ml) of lactotetraose (Accurate Chem. & Sci. Corp., Westbury, N.Y.) or lactose (J. T. Baker Chem. Co., Phillipsburg, N.J.) in PBS. Thereafter the chromatogram binding assay was performed as described above, using chromatograms with separated gangliotetraosylceramide, lactotetraosylceramide and reference glycosphingolipids.
The ability of soluble oligosaccharides to interfere with the binding of Helicobacter pylori to glycosphingolipids on thin-layer plates was examined by incubating radiolabelled Helicobacter pylori strain 17875 with free lactotetraose (0.1 mg/ml) or lactose (0.2 mg/ml) in PBS for 1 h at room temperature before the chromatogram binding assay of the suspensions. […] The lanes were: Galβ3GalNAcβ4Galβ4Glcβ1Cer (gangliotetraosylceramide), 4 μg (lane 1); Galβ3GlcNAcβ3Galβ4Glcβ1Cer (lactotetraosylceramide), 4 μg (lane 2); Galβ4GlcNAcβ3Galβ4Glcβ1Cer (neolactotetraosylceramide), 4 μg (lane 3). The glycosphingolipids were separated on aluminium-backed silica gel 60 HPTLC plates, using chloroform/methanol/water (60:35:8, by volume) as solvent system, and the binding assay was performed as described under “Materials and Methods”, using 2% BSA and 0.1% Tween 20 in PBS as coating buffer. Autoradiography was for 12 h.

In the case of “NeuAcα3Galβ4Glcβ1Cer [GM3, reference compound]”, the “binding of Helicobacter pylori to major acid glycosphingolipids of epithelial cells of human stomach” value (shortened to “binding … of human stomach”) (Helicobacter pylori [1]) is reported as “No binding” and the “binding … of human stomach” value (Helicobacter pylori [1]; listed as GM3 ganglioside) is reported as “non-existent”.
For Galβ3GlcNAcβ3Galβ4Glcβ1Cer, the “binding activity relative to lactotetraosylceramide from human meconium” value (Helicobacter pylori [1]; ceramide exclusively sphingosine and non-hydroxy 16:0 and 24:0 fatty acids, not shown) was “as active as the lactotetraosylceramide from human meconium”.
In the case of “maltoheptaose(red) -HDA [reference compound]”, the “binding activity with regard to Helicobacter pylori in TLC-overlay assay” value (Helicobacter pylori [1]; 4-hexadecylaniline (HDA) derivatives, compared with lactotetraosylceramide glycosphingolipid) is reported as “totally inactive”.
In the case of `CC(=O)N[C@H]1[C@H](O[C@H]2[C@@H](O)[C@@H](CO)O[C@@H](O[C@H]3[C@H](O)[C@@H](O)C(O)O[C@@H]3CO)[C@@H]2O)O[C@H](CO)[C@@H](O)[C@@H]1O[C@@H]1O[C@H](CO)[C@H](O)[C@H](O)[C@H]1O` (stereo partly shown) [lactotetraose, Galβ3GlcNAcβ3Galβ4Glc], the “inhibition of binding of Helicobacter pylori to lactotetraosylceramide” value (Helicobacter pylori [2]; bacteria preincubated with 0.1 mg/ml in PBS) is reported as “inhibited the binding” and the “blocking of binding of H. pylori to gangliotetraosylceramide” value (Helicobacter pylori [2]; preincubation with soluble oligosaccharide (FIG. 5)) is reported as “able to block binding”.
For Galβ3GlcNAcβ3Galβ4Glcβ1Cer [No. 2], the “Helicobacter pylori isolates expressing the lactotetraosylceramide binding capacity” value (Helicobacter pylori [1]; 66 isolates of Table I, lactotetraosylceramide of human meconium) was 86%, the “recognition by sialic acid-binding H. pylori strain CCUG 17874” value (Helicobacter pylori [1]; FIG. 11 B) was “recognised” and the “recognition by H. pylori strain CCUG 17875 devoid of sialic acid binding capacity” value (Helicobacter pylori [1]; FIG. 11 C) was “recognised”. The “effect of bacterial growth conditions on binding” value (Helicobacter pylori [1]; bacteria grown on agar and in broth, for 12 h and for 120 h) was “not affected”, the “dependence of binding on other lipids or bile salts (Tween 20, deoxycholate) in the thin-layer chromatogram assay” value (Helicobacter pylori [1]) was “only when other lipids or bile salts, such as Tween 20 or deoxycholate, are used” and the “binding by babAlA2 mutant strain” value (Helicobacter pylori [1]; gene coding for the Le^b-binding adhesin inactivated, data not shown) was “Binding”. For the same compound, the “number of Helicobacter pylori isolates expressing the lactotetraosylceramide binding capacity” value (Helicobacter pylori [1]; of 66 isolates of Table I, lactotetraosylceramide of human meconium) was 57.
For sulfatide [reference compound], the “binding … of human stomach” value (Helicobacter pylori [1]) was “No binding; also recorded: non-existent”.
With “gangliotriaosylceramide [reference compound]” the “binding of Helicobacter pylori in mixtures of reference glycosphingolipids” value (“binding … of reference glycosphingolipids” below) (Helicobacter pylori [1]) was “binding”.
In the case of “Galβ3GalNAcβ4Galβ4Glcβ1Cer [gangliotetraosylceramide]”, the “dependence of binding on other lipids or bile salts (Tween 20, deoxycholate) in the thin-layer chromatogram assay” value (Helicobacter pylori [1]) is reported as “only marginally is affected” and the “binding … of reference glycosphingolipids” value (Helicobacter pylori [1]) is reported as “binding”.
With lactosylceramide [reference compound] the “binding … of reference glycosphingolipids” value (Helicobacter pylori [1]) was “binding”.
`OC[C@H]1O[C@@H](O[C@H]2[C@H](O)[C@@H](O)C(O)O[C@@H]2CO)[C@H](O)[C@@H](O)[C@H]1O` (stereo partly shown) [lactose, reference compound] was tested, and the “inhibition of binding of Helicobacter pylori to lactotetraosylceramide” value (Helicobacter pylori [2]; bacteria preincubated with 0.2 mg/ml in PBS) was “no inhibitory effect”.
